Here are results for 26 molecules from US20060014812A1, “Use of estrogen related receptor-modulating aryl ethers” (priority 2004, published 2006).

Some results are limits rather than exact numbers.

In general, Kd refers to a measure of binding affinity in units of concentration.

The test addresses T1, ligand binding domain of ERR-α (aa 183-424) (Homo sapiens, UniProt P11474).
T1 construct: His tag (N); thrombin cleavage site (N); made in house; host or cells: E. coli BL21(DE3+)
T1 sequence (P11474 183-423 limits assumed): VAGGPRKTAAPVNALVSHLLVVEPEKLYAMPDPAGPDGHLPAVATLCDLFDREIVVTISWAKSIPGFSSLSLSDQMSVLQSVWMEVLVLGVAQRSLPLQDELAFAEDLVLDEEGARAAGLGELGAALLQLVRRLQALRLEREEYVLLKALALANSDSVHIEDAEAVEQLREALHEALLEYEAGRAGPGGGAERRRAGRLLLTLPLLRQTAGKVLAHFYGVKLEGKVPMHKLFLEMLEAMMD
The experiment in a line: ThermoFluor thermal-shift binding affinity screen against ERR-α ligand binding domain. To be noted: 100 μM test compound, 0.1 mg/mL ERR-α, pH 7.6, Kd estimated from melting temperature shift at reference temperature, read-out: TF Kd. The method, then: The ligand binding domain of ERR-α (aa 183-424) was subcloned in frame with the N-terminal His tag and the cleavable thrombin site in pET28. The protein was expressed in BL21(DE3^+) following induction with 100 μM IPTG at 16° C. Cells were harvested after 16 hours (h) of induction and lysed in 20 mM Tris pH 7.5, 500 mM NaCl, 5 mM imidazole, 5% glycerol, protease inhibitor cocktail (-EDTA) and 2 mM β-ME. Insoluble material was removed by centrifugation at 40,000×g for 1 hr. Clarified homogenate was applied on a Ni-NTA column and after applying an imidazole gradient the protein was eluted. The protein was further purified on size exclusion chromatography to an apparent homogeneity of 95% as judged by SDS-PAGE chromatography.
Binding affinities of compounds were determined by screening against the ligand binding domain of ERR-α using ThermoFluor® technology (U.S. Pat. No. 6,020,141 and U.S. Pat. No. 6,036,920, and Journal of Biomolecular Screening 6 (6), […], pgs 429-440). Assay plates were prepared by dispensing 2 μL of a protein-dye solution and 2 μL of the test compound in a 384-well plate. The conditions used in the screen were: 0.1 mg/mL ERR-α, 25 mM Na-phosphate buffer at pH 7.6, 200 mM NaCl, 10% glycerol, 16 μM ANS, 2% DMSO and the final concentration of test compound was 100 μM. Finally 1 μL of mineral oil was dispensed on top to prevent evaporation during the high throughput screen (HTS). ThermoFluor® is an HTS assay that measures protein unfolding based on fluorescence detection of the denatured form of the protein. The reporter for the protein unfolding event is the environmentally sensitive dye ANS that is incorporated in the screening buffer. During a typical experiment the 384-well plate is heated at a ramping rate of 1° C./min and the thermal unfolding of the protein is monitored at 1° C. intervals by measuring fluorescence changes detected through a CCD camera. Captured images are integrated and a melting curve is generated that relates fluorescence to fraction of unfolded protein as a function of temperature. For the ERR-α screen, data were collected from 30 to 80° C. at 1° C. intervals and the protein melted under the screening conditions with a characteristic melting temperature, Tm, of 52.1° C. Hits were identified from the screen by measuring an increase in the melting temperature of the protein.
In order to estimate binding affinities, it was taken into account that the oligomeric state of ERR-α, which is a dimer (N2), and that of a single ligand (Lf) can interact per monomer subunit with equal affinity. The melting curve for such a system is described by the following three equilibria: [formula] The first equilibrium describes the denaturation of ERR-α dimers; the second equilibrium describes the dissociation of the first ligand from the single ligand occupied ERR-α dimers (N2L); and the third equilibrium describes the dissociation of the second ligand from the fully occupied ERR-α dimers (N2L2).
Following the derivations of Brandts and Lin (Biochemistry, 29, 6967, 1990) the dissociation constants for the ligands (Kd1^t^m) can be determined at T=Tm for any ligand concentration Lt by solving numerically the conservation of mass equations: [formula] and Ku is in the unfolding equilibrium constant for ERR-α dimers that is calculated from the melting curve of the protein in the absence of ligand as described by Pantoliano et al. (J. Biomolecular Screening, 6, 429, 2001) and Bowie & Sauer (Biochemistry, 28, 7139, 1989).
To compare dissociation constants at a common reference temperature, Tref, the following equation was used: [formula] where • Kd^ref=is the dissociation constant of the ligand at a reference temperature Tref • ΔHb^ref=is the binding enthalpy of the ligand to the protein at a reference temperature Tref. […]
As to `COc1ccc(Oc2ccc(C=C3SC(N)=NC3=O)cc2)cc1` [Example 9, 2-Amino-5-[4-(4-methoxy-phenoxy)-benzylidene]-thiazol-4-one], the dissociation constant Kd was 24700 nM.
For `COc1cc(/C=C2\SC(=O)NC2=O)ccc1Oc1ccc(C(F)(F)F)cc1[N+](=O)[O-]` [Example 10, 5-[3-Methoxy-4-(2-nitro-4-trifluoromethyl-phenoxy)-benzylidene]-thiazolidine-2,4-dione], the Kd was 234 nM.
For `COc1cc(/C=C2\SC(=O)NC2=O)cc(Cl)c1Oc1ccc(C(F)(F)F)cc1[N+](=O)[O-]` [Example 13, 5-[3-Chloro-5-methoxy-4-(2-nitro-4-trifluoromethyl-phenoxy)-benzylidene]-thiazolidine-2,4-dione] the value was 79500 nM; for `O=C1NC(=O)/C(=C/c2ccc(Oc3ccc(C(F)(F)F)cc3[N+](=O)[O-])cc2)S1` [Example 14, 5-[4-(2-Nitro-4-trifluoromethyl-phenoxy)-benzylidene]-thiazolidine-2,4-dione], 588 nM.
Under `COc1ccc(Oc2ccc(/C=C3\SC(=O)NC3=O)cc2)cc1` [Example 16, 5-[4-(4-Methoxy-phenoxy)-benzylidene]-thiazolidine-2,4-dione] stands 3530 nM; under `CCOC(=O)CN1C(=O)S/C(=C\c2ccc(Oc3ccc(C(F)(F)F)cc3[N+](=O)[O-])c(OC)c2)C1=O` [Example 17, {5-[3-Methoxy-4-(2-nitro-4-trifluoromethyl-phenoxy)-benzylidene]-2,4-dioxo-thiazolidin-3-yl}-acetic acid ethyl ester], 4860 nM; under `COC(=O)c1ccc(Oc2ccc(/C=C3\SC(=O)NC3=O)cc2OC)c([N+](=O)[O-])c1` [Example 18, 4-[4-(2,4-Dioxo-thiazolidin-5-ylidenemethyl)-2-methoxy-phenoxy]-3-nitro-benzoic acid methyl ester], 69.2 nM.
Take `CCCCN1C(=O)S/C(=C\c2ccc(Oc3ccc(C(F)(F)F)cc3[N+](=O)[O-])c(OC)c2)C1=O` [Example 19, 3-Butyl-5-[3-methoxy-4-(2-nitro-4-trifluoromethyl-phenoxy)-benzylidene]-thiazolidine-2,4-dione]: the Kd is 2700 nM.
As for `O=C1NC(=O)/C(=C/c2ccc(Oc3ccccc3)cc2)S1` [Example 20, 5-(4-Phenoxy-benzylidene)-thiazolidine-2,4-dione], the Kd was 9500 nM.
For `O=C1NC(=O)/C(=C\c2cccc(Oc3cccc(Cl)c3)c2)S1` [Example 21, 5-[3-(3-Chloro-phenoxy)-benzylidene]-thiazolidine-2,4-dione] the value was over 200000 nM; for `COc1cc(C=C(C#N)C#N)ccc1Oc1ccc(C(F)(F)F)cc1[N+](=O)[O-]` [Example 22, 2-[3-Methoxy-4-(2-nitro-4-trifluoromethyl-phenoxy)-benzylidene]-malononitrile], 5060 nM.
For `COc1cc(/C=C(\C#N)S(=O)(=O)c2ccccc2)ccc1Oc1ccc(C(F)(F)F)cc1[N+](=O)[O-]` [Example 23, 2-Benzenesulfonyl-3-[3-methoxy-4-(2-nitro-4-trifluoromethyl-phenoxy)-phenyl]-acrylonitrile] the value was 14600 nM; for `CCOC(=O)/C(C#N)=C/c1ccc(Oc2ccc(C(F)(F)F)cc2[N+](=O)[O-])c(OC)c1` [Example 24, 2-Cyano-3-[3-methoxy-4-(2-nitro-4-trifluoromethyl-phenoxy)-phenyl]-acrylic acid ethyl ester], 2540 nM; for `COc1cc(/C=C(\C#N)c2cccs2)ccc1Oc1ccc(C(F)(F)F)cc1[N+](=O)[O-]` [Example 25, 3-[3-Methoxy4-(2-nitro4-trifluoromethyl-phenoxy)-phenyl]-2-thiophen-2-yl-acrylonitrile], 7170 nM.
For `COc1cc(/C=C(\C#N)c2nc3ccccc3[nH]2)ccc1Oc1ccc(C(F)(F)F)cc1[N+](=O)[O-]` [Example 26, 2-(1H-Benzoimidazol-2-yl)-3-[3-methoxy-4-(2-nitro-4-trifluoromethyl-phenoxy)-phenyl]-acrylonitrile] the value was 15200 nM; for `COc1cc(/C=C(\C#N)c2ccccn2)ccc1Oc1ccc(C(F)(F)F)cc1[N+](=O)[O-]` [Example 27, 3-[3-Methoxy-4-(2-nitro-4-trifluoromethyl-phenoxy)-phenyl]-2-pyridin-2-yl-acrylonitrile], 1380 nM.
`COc1cc(/C=C(\C#N)C(=O)c2ccccc2)ccc1Oc1ccc(C(F)(F)F)cc1[N+](=O)[O-]` [Example 28, 2-Benzoyl-3-[3-methoxy-4-(2-nitro-4-trifluoromethyl-phenoxy)-phenyl]-acrylonitrile]: the Kd is 608 nM.
Under `COc1cc(/C=C(/C(=O)c2cccs2)C(=O)C(F)(F)F)ccc1Oc1ccc(C(F)(F)F)cc1[N+](=O)[O-]` [Example 29, 4,4,4-Trifluoro-2-[3-methoxy-4-(2-nitro-4-trifluoromethyl-phenoxy)-benzylidene]-1-thiophen-2-yl-butane-1,3-dione] stands 15400 nM; under `COc1cc(/C=C2\C(=O)N(c3ccccc3)N=C2C)ccc1Oc1ccc(C(F)(F)F)cc1[N+](=O)[O-]` [Example 30, 4-[3-Methoxy-4-(2-nitro-4-trifluoromethyl-phenoxy)-benzylidene]-5-methyl-2-phenyl-2,4-dihydro-pyrazol-3-one], 1160 nM.
Under `COc1cc(/C=C2/NC(=S)NC2=O)ccc1Oc1ccc(C(F)(F)F)cc1[N+](=O)[O-]` [Example 31, 5-[3-4-(2-nitro-4-trifluoromethyl-phenoxy)-benzylidene]-2-thioxo-imidazolidin-4 4-one] stands 2200 nM.
For `COc1cc(/C=C2\C(=O)ON=C2c2ccccc2)ccc1Oc1ccc(C(F)(F)F)cc1[N+](=O)[O-]` [Example 32, 4-[3-4-(2-nitro-4-trifluoromethyl-phenoxy)-benzylidene]-3-phenyl-4H-isoxazol-5-one] the value was 795 nM; for `COc1cc(C=C2C(=O)c3ccccc3C2=O)ccc1Oc1ccc(C(F)(F)F)cc1[N+](=O)[O-]` [Example 33, 2-[3-4-(2-nitro-4-trifluoromethyl-phenoxy)-benzylidene]-indan-1,3-dione], 473 nM; for `COC(=O)c1ccc(Oc2ccc(C=C3C(=O)c4ccccc4C3=O)cc2OC)c([N+](=O)[O-])c1` [Example 35, 4-[4-(1,3-Dioxo-indan-2-ylidenemethyl)-2-methoxy-phenoxy]-3-nitro-benzoic acid methyl ester], 520 nM.
On to `CCN1C(=O)/C(=C\c2ccc(Oc3ccc(C(F)(F)F)cc3[N+](=O)[O-])c(OC)c2)SC1=S` [Example 36, 3-Ethyl-5-[3-methoxy-4-(2-nitro-4-trifluoromethyl-phenoxy)-benzylidene]-2-thioxo-thiazolidin-4-one], for which the Kd is 20300 nM.
Under `COc1cc(/C=C2\SC(=O)NC2=O)ccc1OCc1ccc(F)cc1Cl` [Example 37, 5-[4-(2—Chloro-4-fluoro-benzyloxy)-3-methoxy-benzylidene]-thiazolidine-2,4-dione] stands 414 nM; under `COc1cc(/C=C2\SC(=O)NC2=O)ccc1OCc1cccc(F)c1` [Example 38, 5-[4-(3-Fluoro-benzyloxy)-3-methoxy-benzylidene]-thiazolidine-2,4-dione], 3180 nM.
